Assay results published in ChEMBL document CHEMBL1158772, “Benzophenones from Hypericum carinatum” (J Nat Prod, 2005).
Active and inactive are the calls of the source. The rule behind the calls is not given here.

Columns and labels:
Format in all cases: functional
[1] = Antioxidant activity assessed as ABAP free radical scavenging measured at 1.6 mM by TRAP assay
[2] = Antioxidant activity assessed as ABAP free radical scavenging measured at 3.2 mM by TRAP assay
[3] = Antioxidant activity assessed as ABAP free radical scavenging measured by TRAP assay

Cc1c(O)c(C(=O)c2ccccc2)c(O)c2c1OC(C)(C)C=C2
Activity [1]: Active | Activity [2]: Active

Cc1c(O)c2c(c(C(=O)c3ccccc3)c1O)OC(C)(C)C=C2
Activity [3]: inactive

O=c1c(O)c(-c2ccc(O)c(O)c2)oc2cc(O)cc(O)c12
Activity [2]: Active

CC(C)C(=O)C1=C(O)C(Cc2c(O)c3c(c(C(=O)C(C)C)c2O)OC(C)(C)C=C3)=C(O)C(C)(C)C1=O
Activity [3]: inactive
